# Results: US20120231141A1, “BITTERNESS-IMPROVING AGENT FOR BITTER FOOD AND DRINK AND ASTRINGENCY-IMPROVING AGENT FOR ASTRINGENT FOOD AND DRINK” (priority 2009, published 2012)
# Experiment: Bitterness evaluation of grapefruit juice (flavor comparison by 10 panelists)
# Type: in vivo
# Conditions: for A: the number of panelists who felt no difference from 3-n-butylphthalide-free / B: the number of panelists who felt some reduction in bitterness / Flavor judgment: the number of panelists who judged it as most proper bitterness / N: the number of panelists who hardly felt bitterness: 10 panelists
# Description: 3-n-Butylphthalide was added as a bitterness-improving agent (masking agent for bitterness) of the present invention to commercially available grapefruit juice at the concentrations shown in the following Table 2 to obtain grapefruit juice.
# [1] = 3-n-butylphthalide 0.01 ppb in grapefruit juice
# [2] = 3-n-butylphthalide 0.01 ppm in grapefruit juice
# [3] = 3-n-butylphthalide 0.1 ppb in grapefruit juice
# [4] = 3-n-butylphthalide 0.1 ppm in grapefruit juice
# [5] = 3-n-butylphthalide 1 ppb in grapefruit juice
# [6] = 3-n-butylphthalide 1 ppm in grapefruit juice
# [7] = 3-n-butylphthalide 1 ppt in grapefruit juice
# [8] = 3-n-butylphthalide 10 ppm in grapefruit juice
smiles,measurement,setting,value
CCCCC1OC(=O)c2ccccc21 (centres unmarked) [3-n-butylphthalide],A: the number of panelists who felt no difference from 3-n-butylphthalide-free,[1],7
same,B: the number of panelists who felt some reduction in bitterness,[1],2
same,Flavor judgment: the number of panelists who judged it as most proper bitterness,[1],0
same,N: the number of panelists who hardly felt bitterness,[1],1
same,reduction in bitterness at low concentration,"3-n-butylphthalide 0.01 ppb, grapefruit juice",some panelists felt some reduction in bitterness
same,A: the number of panelists who felt no difference from 3-n-butylphthalide-free,[2],2
same,B: the number of panelists who felt some reduction in bitterness,[2],6
same,Flavor judgment: the number of panelists who judged it as most proper bitterness,[2],2
same,N: the number of panelists who hardly felt bitterness,[2],2
same,A: the number of panelists who felt no difference from 3-n-butylphthalide-free,[3],4
same,B: the number of panelists who felt some reduction in bitterness,[3],6
same,Flavor judgment: the number of panelists who judged it as most proper bitterness,[3],0
same,N: the number of panelists who hardly felt bitterness,[3],0
same,A: the number of panelists who felt no difference from 3-n-butylphthalide-free,[4],0
same,B: the number of panelists who felt some reduction in bitterness,[4],4
same,Flavor judgment: the number of panelists who judged it as most proper bitterness,[4],5
same,N: the number of panelists who hardly felt bitterness,[4],6
same,A: the number of panelists who felt no difference from 3-n-butylphthalide-free,[5],3
same,B: the number of panelists who felt some reduction in bitterness,[5],7
same,Flavor judgment: the number of panelists who judged it as most proper bitterness,[5],0
same,N: the number of panelists who hardly felt bitterness,[5],0
same,A: the number of panelists who felt no difference from 3-n-butylphthalide-free,[6],0
same,B: the number of panelists who felt some reduction in bitterness,[6],4
same,Flavor judgment: the number of panelists who judged it as most proper bitterness,[6],3
same,N: the number of panelists who hardly felt bitterness,[6],6
same,A: the number of panelists who felt no difference from 3-n-butylphthalide-free,[7],9
same,B: the number of panelists who felt some reduction in bitterness,[7],1
same,Flavor judgment: the number of panelists who judged it as most proper bitterness,[7],0
same,N: the number of panelists who hardly felt bitterness,[7],0
same,A: the number of panelists who felt no difference from 3-n-butylphthalide-free,[8],0
same,B: the number of panelists who felt some reduction in bitterness,[8],3
same,Flavor judgment: the number of panelists who judged it as most proper bitterness,[8],0
same,N: the number of panelists who hardly felt bitterness,[8],7
same,overall result of bitterness masking,"amount of 3-n-butylphthalide about 0.1 ppb to 1 ppm, grapefruit juice",particularly good results were obtained
same,bitterness of grapefruit juice (judgment),grapefruit juice containing 0.01 ppb to 10 ppm of 3-n-butylphthalide,masked
